According to the supplement of paper PMC10307832:

Columns and labels:
Experiment in all cases: relative viability (nuclei count vs DMSO), 5 days (fraction); higher = more cells survive
[1] = compound: C=CCc1cccc(/C=N/NC(=O)CN2CCN(Cc3ccccc3)CC2)c1O [PAC-1] + O=C(CCCCCCC(=O)Nc1ccccc1)NO [Vorinostat] (partner 1 µM)
Procedure, shortened: (§1)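 Cells from lung cancer lines were seeded into 1536-well plates and, one day later, dosed by pin tool. Treatments were either a single drug or a fixed dose of an anchor drug with five library-drug doses (not always all listed) in √10 steps. After 5 days, nuclei were stained in a one-step fixation (final 0.05% Triton X-100, 1% formaldehyde, 1 ug/ml Hoechst) and counted on 4× images, and relative viability is the treated-to-vehicle nuclei ratio, as the median of duplicate plates.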

[2] = compound: C=CC(=O)N1CCC[C@@H](n2nc(-c3ccc(Oc4ccccc4)cc3)c3c(N)ncnc32)C1 [Ibrutinib] + COc1cccc2cc(-c3nc([C@H]4CC[C@H](C(=O)O)CC4)n4ncnc(N)c34)[nH]c12 [OSI-027] (partner 0.5 µM)
Procedure, shortened: as §1

[3] = compound: C=CC(=O)Nc1cc(-n2c(=O)ccc3cnc4ccc(-c5ccc(NS(C)(=O)=O)cc5)cc4c32)ccc1C [BMX-IN-1] + CC(=O)c1c(C)c2cnc(Nc3ccc(N4CCNCC4)cn3)nc2n(C2CCCC2)c1=O [Palbociclib] (partner 0.5 µM)
Procedure, shortened: as §1

[4] = compound: C=CCc1cccc(/C=N/NC(=O)CN2CCN(Cc3ccccc3)CC2)c1O [PAC-1] + CC(=O)c1c(C)c2cnc(Nc3ccc(N4CCNCC4)cn3)nc2n(C2CCCC2)c1=O [Palbociclib] (partner 0.5 µM)
Procedure, shortened: as §1

Cell Line | relative viability ([1]; first compound 0.02 µM) | relative viability ([1]; first compound 0.06325 µM) | relative viability ([1]; first compound 0.2 µM) | relative viability ([1]; first compound 2 µM) | relative viability ([2]; first compound 0.005 µM) | relative viability ([2]; first compound 0.01581 µM) | relative viability ([2]; first compound 0.05 µM) | relative viability ([2]; first compound 0.1581 µM) | relative viability ([2]; first compound 0.5 µM) | relative viability ([3]; first compound 0.02 µM) | relative viability ([3]; first compound 0.2 µM) | relative viability ([3]; first compound 0.6325 µM) | relative viability ([3]; first compound 2 µM) | relative viability ([4]; first compound 0.02 µM) | relative viability ([4]; first compound 0.06325 µM) | relative viability ([4]; first compound 0.2 µM) | relative viability ([4]; first compound 2 µM)
SW 1573 | 0.693 | 0.649 | 0.571 | 0.861 | 0.436 | 0.517 | 0.653 | 0.704 | 0.651 | 0.411 | 0.413 | 0.391 | 0.334 | 0.381 | 0.292 | 0.455 | 0.474
UMC-11 | 0.36 | 0.41 | 0.349 | 0.513 | 0.306 | 0.441 | 0.495 | 0.541 | 0.5 | 0.345 | 0.336 | 0.341 | 0.318 | 0.339 | 0.322 | 0.371 | 0.277
